This passage reports EC50 and IC50 results from patent US10344026B2, “Compositions and methods of targeting mutant K-ras” (NANTBIO, INC., priority 2017, dated 2019).

Format in all cases: cell-based
In test [1] the test system is phospho-Akt in A375 (Wild-type). As to the kind of experiment: In-Cell Western phospho-Akt, A375. The settings on record: Homo sapiens, A-375, 1 h; A375, one hour treatment; read-out: In-Cell Western A375 (Wild-type) Akt (P). In outline:
(§1)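 3000 cells/well, 18 hr pre-incubation; 1 hr compound exposure, 0.5% DMSO final. Formaldehyde fix, Triton permeabilization, primary Ab overnight 4° C, secondary 2 hr. Fluorescence imaging; EC50.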

For test [2], the system named is HCT116-G31D. Briefly: Viability assay (CellTiterBlue, 72 hr) HCT116. As to conditions: Homo sapiens, HCT-116, GI50, CellTiterBlue, HCT116 K-Ras G13D, read-out: 72 hr Cell Viability HCT116 (G13D). In outline:
(§2)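 GI50 calculation uses a window set by DMSO-treated wells (100% viability) and 100 uM tamoxifen (0%). Cells (1000/well) sit 18 hr at 37 °C, receive compound for 72 hr in 0.5% DMSO, then get CellTiterBlue for 3 hr before reading at Ex550/Em590.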
On the technique in general: The colour change of resazurin is a common sign of viable cells or microbes.

Test [3] relates to phospho-ERK in HCC827 (Wild-type). As to the kind of experiment: In-Cell Western phospho-ERK, HCC827. The settings on record: Homo sapiens, 1 h; HCC827, one hour treatment; read-out: In-Cell Western HCC827 (Wild-type) Erk (P). In outline: as §1
Test [4] concerns HCC827 (K-Ras wild type cell line). As to the kind of experiment: Viability assay (CellTiterBlue, 72 hr) HCC827. As to conditions: Homo sapiens, GI50, CellTiterBlue, HCC827 K-Ras wild-type. Put shortly:
as §2

Test [5] relates to Panc1-G12D. As to the kind of experiment: Viability assay (CellTiterBlue, 72 hr) Panc1. As to conditions: Homo sapiens, PANC-1, GI50, CellTiterBlue, Panc1 K-Ras G12D, read-out: 72 hr Cell Viability Panc1 (G12D). Put shortly: as §2
The subject of test [6] is phospho-Akt in Panc1 (G12D). Briefly: In-Cell Western phospho-Akt, Panc1. The settings on record: Homo sapiens, PANC-1, 1 h; Panc1, one hour treatment; read-out: In-Cell Western Panc1 (G12D) Akt (P). In outline:
as §1

In test [7] the test system is U87-MG (K-Ras wild type cell line). As to the kind of experiment: Viability assay (CellTiterBlue, 72 hr) U87-MG. The settings on record: Homo sapiens, U-87 MG, GI50, CellTiterBlue, U87-MG K-Ras wild-type. Put shortly:
as §2

The test system of test [8] is A375 (K-Ras wild type cell line). As to the kind of experiment: Viability assay (CellTiterBlue, 72 hr) A375. As to conditions: Homo sapiens, A-375, GI50, CellTiterBlue. In outline:
as §2

In test [9] the test system is Panc10.05-G12D. Briefly: Viability assay (CellTiterBlue, 72 hr) Panc10.05. As to conditions: Homo sapiens, Panc1005, GI50, CellTiterBlue, Panc10.05 K-Ras G12D, read-out: 72 hr Cell Viability Panc10.05 (G12D). In outline: as §2
The target of test [10] is T1, wild type K-Ras (Homo sapiens, UniProt P01116).
T1 construct: expressed in transfected cells; host or cells: 293H cells
As to the kind of experiment: G-LISA Ras activation, 293H cells transfected with Ras wild-type, EGF stimulated. As to conditions: compound 1 hour, then 100 ng/ml EGF 2 minutes. Put shortly:
(§3)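 G-LISA Ras-GTP readout; 293H transfectants treated 1 h with 3.125-25 μM compound, EGF pulse (100 ng/ml, 2 min) for wild-type only.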

Test [11] deals with phospho-ERK in Panc10.05 (G12D). As to the kind of experiment: In-Cell Western phospho-ERK, Panc10.05. As to conditions: Homo sapiens, Panc1005, 1 h; Panc10.05, one hour treatment; read-out: In-Cell Western Panc10.05 (G12D) Erk (P). In outline:
as §1

Test [12] relates to phospho-ERK in A375 (Wild-type). Briefly: In-Cell Western phospho-ERK, A375. As to conditions: Homo sapiens, A-375, 1 h; A375, one hour treatment; read-out: In-Cell Western A375 (Wild-type) Erk (P). Put shortly: as §1
Test [13] deals with phospho-Akt in Panc10.05 (G12D). Briefly: In-Cell Western phospho-Akt, Panc10.05. As to conditions: Homo sapiens, Panc1005, 1 h; Panc10.05, one hour treatment; read-out: In-Cell Western Panc10.05 (G12D) Akt (P). In outline:
as §1

Test [14] has as its target T2, K-Ras G12D (Homo sapiens, UniProt P01116, G12D).
T2 construct: expressed in transfected cells; host or cells: 293H cells
As to the kind of experiment: G-LISA Ras activation, 293H cells transfected with G12D mutant. As to conditions: compound 1 hour. Put shortly:
as §3

The test system of test [15] is phospho-ERK in Panc1 (G12D). As to the kind of experiment: In-Cell Western phospho-ERK, Panc1. The settings on record: Homo sapiens, PANC-1, 1 h; Panc1, one hour treatment; read-out: In-Cell Western Panc1 (G12D) Erk (P). In outline:
as §1

For test [16], the system named is Ishikawa (K-Ras wild type cell line). Briefly: Viability assay (CellTiterBlue, 72 hr) Ishikawa. The settings on record: Homo sapiens, GI50, CellTiterBlue, Ishikawa K-Ras wild-type. In outline: as §2

pEC50, pIC50: −log10 of the molar value.

T2 sequence (P01116 whole entry G12D): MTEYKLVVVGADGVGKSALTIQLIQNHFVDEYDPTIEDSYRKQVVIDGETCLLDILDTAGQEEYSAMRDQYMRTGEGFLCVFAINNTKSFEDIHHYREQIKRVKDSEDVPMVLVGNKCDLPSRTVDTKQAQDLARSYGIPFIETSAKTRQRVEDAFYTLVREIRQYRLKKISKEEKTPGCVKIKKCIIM
T1 sequence (P01116 whole entry): as the sequence (P01116 whole entry G12D) above, with D12G counted along it

In the case of `COC(=O)CCCN1C(=O)CCc2cc(-c3csc(NC(=O)c4oc(C)nc4C)n3)ccc21` [Compound 100, methyl 4-(6-(2-(2,4-dimethyloxazole-5-carboxamido)thiazol-4-yl)-2-oxo-3,4-dihydroquinolin-1 (2H)-yl)butanoate], the pEC50 in test [1] is 5.30; in [3] it was 5.52; in [6], 4.60; in test [11], 5.52; in test [12] it was 5.40; in test [13], 5.15. The pEC50 in [15] is 4.77. The pIC50 in test [2] is less than 4.60; in [4], less than 4.60; in [5] it was 5.30; in [7], less than 4.60; in [8], 5.40; in test [9], 5.30. The same compound gave a pIC50 in test [16] of 5.52. For the same compound, the half-inhibitory concentration (IC50) came to 9.5 µM in test [10] and 5.5 µM in test [14].

With `Cc1nn(C)cc1C(=O)Nc1nc(-c2ccc3c(c2)CCC(=O)N3Cc2cccnc2)cs1` [Compound 112, 1,3-dimethyl-N-(4-(2-oxo-1-(pyridin-3-ylmethyl)-1,2,3,4-tetrahydroquinolin-6-yl)thiazol-2-yl)-1H-pyrazole-4-carboxamide], the pEC50 in test [1] is 4.96; in [3], 4.77; in test [6], 5.30; in test [11], 6.00; in test [12], 5.10; in test [13], 4.74. In addition, the pEC50 in test [15] was 5.40. Further, the pIC50 in test [2] is 5.70; in test [4] it was 5.40; in test [5], 5.30; in [7] it was less than 4.60; in test [8] it was less than 4.60; in test [9] it was 5.52. The same compound showed a pIC50 in [16] of less than 4.60. Besides, the figures for the IC50 in test [10] and in test [14] were 10.7 µM and 10 µM, respectively.

Turning to `Cc1nc(C)c(C(=O)Nc2nc(-c3ccc4c(c3)CCC(=O)N4CCN(C)C)cs2)o1` [Compound 97, N-(4-(1-(2-(dimethylamino)ethyl)-2-oxo-1,2,3,4-tetrahydroquinolin-6-yl)thiazol-2-yl)-2,4-dimethyloxazole-5-carboxamide], the pEC50 in [1] was 5.00; in test [3] it was less than 4.60; in [6], 5.22; in [11], 5.92; in test [12], 5.10; in test [13] it was 4.92. Also, the pEC50 in test [15] was 5.30. Further, the pIC50 in [2] is 5.30; in test [4], 5.30; in test [5], 5.05; in [7], less than 4.60; in test [8], less than 4.60; in test [9], 5.40. Also, the pIC50 in [16] is less than 4.60. The results for the 50% inhibitory concentration (IC50) in [10] and in test [14] were 12.6 µM and 8.1 µM, respectively.

For the compound `COCCCN1C(=O)CCc2cc(-c3csc(NC(=O)c4oc(C)nc4C)n3)ccc21` [Compound 96, N-(4-(1-(3-methoxypropyl)-2-oxo-1,2,3,4-tetrahydroquinolin-6-yl)thiazol-2-yl)-2,4-dimethyloxazole-5-carboxamide], the pEC50 in [1] was 5.22; in test [3] it was 5.15; in test [6], 5.40; in test [11], 5.96; in [12] it was 5.22; in test [13], 5.05. Also, the pEC50 in test [15] is 5.15. For the same compound, the pIC50 in test [2] is 5.52; in test [4] it was 5.40; in test [5], 5.40; in [7], less than 4.60; in test [8], less than 4.60; in test [9], 5.52. In test [16], this compound had a pIC50 of less than 4.60. Moreover, the IC50 in test [10] is 12.1 µM; in test [14], 5 µM.

Turning to `Cc1nc(C)c(C(=O)Nc2nc(-c3ccc4c(c3)CCC(=O)N4C3CCCC3)cs2)o1` [Compound 69, N-(4-(1-cyclopentyl-2-oxo-1,2,3,4-tetrahydroquinolin-6-yl)thiazol-2-yl)-2,4-dimethyloxazole-5-carboxamide], the pEC50 was 5.70 in [1]; 5.30 in [3]; 5.22 in test [6]; 5.70 in test [11]; 5.52 in test [12]; 4.77 in [13]. For the same compound, in [15], the pEC50 is 5.10. For the same compound, the pIC50 in test [2] is 5.70; in test [4], 5.70; in [5], 5.15; in [7] it was less than 4.60; in [8], less than 4.60; in test [9] it was 5.52. For the same compound, in test [16], the pIC50 is less than 4.60. Further, the IC50 in test [10] worked out at 18.6 µM; in test [14], 8.1 µM.

Regarding `Cc1nc(C(C)C)sc1C(=O)Nc1nc(-c2ccc3c(c2)CCC(=O)N3Cc2cccnc2)cs1` [Compound 107, 2-isopropyl-4-methyl-N-(4-(2-oxo-1-(pyridin-3-ylmethyl)-1,2,3,4-tetrahydroquinolin-6-yl)thiazol-2-yl)thiazole-5-carboxamide], the pEC50 in test [1] is less than 4.60; in test [3], 5.22; in test [6] it was less than 4.60; in test [11] it was 5.00; in test [12] it was 4.80; in test [13], less than 4.60. Also, the pEC50 in [15] was 5.22. For the same compound, the pIC50 is 5.22 in [2]; less than 4.60 in test [4]; less than 4.60 in test [5]; less than 4.60 in [7]; 4.72 in [8]; 5.70 in test [9]. Also, the pIC50 in [16] was less than 4.60. Besides, the IC50 in test [10] came out at 9.7 µM; in test [14] it was 6.6 µM.

For `CCn1nc(C)c(C(=O)Nc2nc(-c3ccc4c(c3)CCC(=O)N4Cc3cccnc3)cs2)c1C` [Compound 114, 1-ethyl-3,5-dimethyl-N-(4-(2-oxo-1-(pyridin-3-ylmethyl)-1,2,3,4-tetrahydroquinolin-6-yl)thiazol-2-yl)-1H-pyrazole-4-carboxamide], the pEC50 is less than 4.60 in test [1]; 5.40 in [3]; 4.77 in test [6]; 5.72 in test [11]; 5.30 in test [12]; 4.77 in test [13]. Further, in test [15], the pEC50 was 5.96. Further, the pIC50 in test [2] was 5.30; in [4], less than 4.60; in [5], 4.66; in [7] it was less than 4.60; in [8], 5.22; in test [9] it was 5.96. Besides, the pIC50 in test [16] is less than 4.60. In addition, the IC50 in [10] was 6 µM; in test [14] it was 3 µM.

By IC50 is commonly meant the concentration at which inhibition is half-maximal. A higher IC50 goes with a need for much substance.
